Patent publication US11359200B2, “Cancer treatment by MALAT1 inhibition” (THE CLEVELAND CLINIC FOUNDATION, priority 2017, dated 2022)
One block for each compound: values may come before it. d = 2'-deoxy (DNA); m = 2'-O-methyl

How the values were obtained:
RPMI8226/LR5 cells = experiment: Cell viability assay, melphalan-resistant cells; format: cell-based; settings: Homo sapiens, RPMI-8226, 72 h
Method: (§1) For the drug resistant cells, RPMI8226/DOX40, RPMI8226/LR5 and RPMI8226/V10R cells were transfected with 1 nM control or anti-MALAT1 oligos separately for 24 hours and treated with a gradient concentration of doxorubicin for RPMI8226/DOX40, or melphalan for RPMI8226/LR5, or bortezomib for RPMI8226/V10R for 72 hours. Cell were subjected to qRT-PCR, proliferation and apoptosis assays.
(§2) MM cell lines (MM.1S, H929 and RPMI8226) and drug resistant MM cell lines (RPMI8226/LR5, RPMI8226/DOX40 and RPMI8226/V10R) were treated with anti-MALAT1 oligos for 24 hours. 2×10^4 cells/well were seeded in a 96-well plate with 100 μL medium containing gradient concentration of bortezomib, melphalan or doxorubicin per well. After 72 hours culture, cells were subjected to cell viability assay using CellTilter 96® Aqueous One Solution Cell Proliferation Assay (Promega Corporation), according to the manufacturer's instructions. The half maximal inhibitory concentration (IC50) was calculated by Graphpad Prism V5.0.

MALAT1 = MALAT1 knock-down in MM cells by qRT-PCR; format: cell-based, Human; settings: H929, MM.1S and RPMI8226 cells, 48 h after transfection
Method: (§3) For anti-MALAT1 transfection and ABT-888 (Santa Cruz Biotechnology Inc) or bortezomib (MilliporeSigma) treatment, MM cells were seeded on 12-well plates at a concentration of 5×10^5 cells/mL. The cells were transfected using Lipofectamine 2000 (Thermo Fisher Scientific) with 1 nM control or anti-MALAT1 oligos for 24 hours and then treated with a gradient concentration of ABT-888 or bortezomib for another 24 hours. Cells were subjected to proliferation and apoptosis assays, qRT-PCR, and immunoblotting.
Quantitative RT-PCR (qRT-PCR) analysis was used to determine the relative expression level of MALAT1. Total RNA was extracted from cells or tissues using Trizol Reagent (Thermo Fisher Scientific) according to the manufacturer's instructions. After Turbo DNase (Thermo Fisher Scientific) treatment, 500 ng total RNA was subjected to reverse transcription using the RevertAid first-stand cDNA synthesis kit (Thermo Fisher Scientific). Quantitative PCR using SYBR Green PCR master mix (Thermo Fisher Scientific) was employed to determine MALAT1 level with PCR cycle conditions of 95° C. 10 min, 95° C. 15 s, and 60° C. 1 min, for 40 cycles. GAPDH was used as loading control.

γH2A.X = experiment: Immunofluorescence staining and western blot for γH2A.X after MALAT1 knock-down; format: cell-based, Human; settings: H929, MM.1S and RPMI8226 cells, 48 h after transfection
Method: Protein was extracted from cells using RIPA buffer (Thermo Fisher Scientific) containing protease inhibitor cocktail (Roche) and phosphatase inhibitor cocktail (Thermo Fisher Scientific). Protein extracts were boiled in SDS/β-mercaptoethanol sample buffer, and 30 μg samples were loaded into each well on 4%-12% polyacrylamide gels (Thermo Fisher Scientific). The proteins were separated by electrophoresis, and the proteins in the gels were blotted onto PVDF membranes (Thermo Fisher Scientific) by electrophoretic transfer. […] The specific protein—antibody complex was detected with horseradish peroxidase-conjugated rabbit anti-mouse IgG. […]

PARP1 = target: T1, PARP1 (Homo sapiens, UniProt P09874); experiment: Immunoblotting after anti-MALAT1 and ABT-888 treatment; format: cell-based
T1 construct: Protein was extracted from cells using RIPA buffer; endogenous in cells; host or cells: H929, MM.1S (human multiple myeloma cell lines, ATCC)
T1 sequence (P09874 whole entry): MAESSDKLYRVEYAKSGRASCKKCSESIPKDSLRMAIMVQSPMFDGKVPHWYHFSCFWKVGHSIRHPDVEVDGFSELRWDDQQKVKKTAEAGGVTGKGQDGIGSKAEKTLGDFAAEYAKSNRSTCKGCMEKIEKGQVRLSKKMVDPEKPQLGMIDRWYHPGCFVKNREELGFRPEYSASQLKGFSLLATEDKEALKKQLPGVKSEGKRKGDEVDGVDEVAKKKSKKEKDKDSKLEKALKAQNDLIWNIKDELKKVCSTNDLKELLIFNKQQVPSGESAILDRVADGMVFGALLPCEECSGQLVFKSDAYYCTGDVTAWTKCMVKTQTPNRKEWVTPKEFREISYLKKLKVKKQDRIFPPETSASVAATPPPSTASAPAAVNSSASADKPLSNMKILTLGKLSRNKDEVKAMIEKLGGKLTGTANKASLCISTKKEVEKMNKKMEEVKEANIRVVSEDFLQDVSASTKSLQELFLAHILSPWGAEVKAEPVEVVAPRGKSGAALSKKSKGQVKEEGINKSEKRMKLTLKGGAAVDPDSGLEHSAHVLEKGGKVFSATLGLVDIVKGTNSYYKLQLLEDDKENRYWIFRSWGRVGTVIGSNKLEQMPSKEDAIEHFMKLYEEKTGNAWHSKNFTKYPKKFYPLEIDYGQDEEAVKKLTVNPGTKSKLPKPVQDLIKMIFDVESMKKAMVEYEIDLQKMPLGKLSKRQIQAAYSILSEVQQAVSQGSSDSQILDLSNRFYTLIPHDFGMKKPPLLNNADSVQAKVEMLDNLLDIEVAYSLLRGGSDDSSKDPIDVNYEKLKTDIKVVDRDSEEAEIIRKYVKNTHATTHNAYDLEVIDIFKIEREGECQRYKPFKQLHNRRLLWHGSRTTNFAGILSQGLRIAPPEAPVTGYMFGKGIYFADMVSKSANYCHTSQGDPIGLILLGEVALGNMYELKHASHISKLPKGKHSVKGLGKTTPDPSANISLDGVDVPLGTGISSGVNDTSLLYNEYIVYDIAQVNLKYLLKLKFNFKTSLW
Method: (§4) Cells were subjected to proliferation and apoptosis assays, qRT-PCR, and immunoblotting.
(§5) Protein was extracted from cells using RIPA buffer (Thermo Fisher Scientific) containing protease inhibitor cocktail (Roche) and phosphatase inhibitor cocktail (Thermo Fisher Scientific). Protein extracts were boiled in SDS/β-mercaptoethanol sample buffer, and 30 μg samples were loaded into each well on 4%-12% polyacrylamide gels (Thermo Fisher Scientific). The proteins were separated by electrophoresis, and the proteins in the gels were blotted onto PVDF membranes (Thermo Fisher Scientific) by electrophoretic transfer. […] The specific protein—antibody complex was detected with horseradish peroxidase-conjugated rabbit anti-mouse IgG. Detection by chemiluminescence reaction was carried using the SuperSignal West Femto Maximum Sensitivity Substrate kit (Thermo Fisher Scientific). β-actin was used as a loading control.

RPMI8226/DOX40 cells = experiment: Cell viability assay, doxorubicin-resistant cells; format: cell-based; settings: Homo sapiens, RPMI-8226, 72 h
Method: as §1, §2

H929 cells = experiment: Cell viability assay, bortezomib with or without MALAT1 knockdown; format: cell-based; settings: Homo sapiens
Method: as §3, §2

MM.1S cells = experiment: as above; format: cell-based; settings: Homo sapiens, MM1.S
Method: as §3, §2

RPMI8226 cells = experiment: as above; format: cell-based; settings: Homo sapiens, RPMI-8226, third cell line (RPMI8226, FIG. 6C)
Method: as §3, §2

RPMI8226/V10R cells = experiment: Cell viability assay, bortezomib-resistant cells; format: cell-based; settings: Homo sapiens, RPMI-8226, 72 h
Method: as §1, §2

[1] = tested on: H929, MM.1S and RPMI8226 cells; experiment: MM cell apoptosis assay (annexin V/PI flow cytometry); format: cell-based, Human; settings: high-/low-dose bortezomib treatment
Method: as §3
After transfection of cells with anti-MALAT1 #1 or #2 and control, apoptosis was evaluated by assaying for annexin V. Cells were stained with APC Annexin V Apoptosis Detection Kit with PI (BioLegend), according to the manufacturer's instructions. Stained cells were analyzed using flow cytometry, and data were analyzed using Flowjo software (Ashland).

BRCA1 and BRCA2 = experiment: Immunoblotting of BRCA1 and BRCA2 after bortezomib treatment; format: cell-based, Human; settings: H929, MM.1S and RPMI8226, high-dose bortezomib
Method: as §4, §5

[2] = transfected with 1 nM anti-MALAT1, 72 hours

Compound: N[C@@H](Cc1ccc(N(CCCl)CCCl)cc1)C(=O)O [melphalan]
- IC50 (RPMI8226/LR5 cells; control oligos, 72 hours): 53.4 µM
- IC50 (RPMI8226/LR5 cells; [2]): 34 µM

Compound: 5′-mC*mG*mA*mA*mA*C*A*T*T*G*G*C*A*C*A*mC*mA*mG*mC*mA-3′ (antisense CGAAACATTGGCACACAGCA; sugars from the 5' end m5 d10 m5, all phosphorothioate, methylation of C not given here) [anti-MALAT1-1]
- MALAT1 level (qRT-PCR) (MALAT1): efficiently knocked-down
- frequency of DNA break (γH2A.X) (γH2A.X): increased substantially

Compound: 5′-mG*mG*mC*mA*mU*A*T*G*C*A*G*A*T*A*A*mU*mG*mU*mU*mC-3′ (antisense GGCAUATGCAGATAAUGUUC; sugars from the 5' end m5 d10 m5, all phosphorothioate, methylation of C not given here) [anti-MALAT1-2]
- MALAT1 level (qRT-PCR) (MALAT1): efficiently knocked-down
- frequency of DNA break (γH2A.X) (γH2A.X): increased substantially

Now from value to compound, other results behind:

- PAR signal (PARP1; H929 and MM.1S, treated synchronously with anti-MALAT1 and ABT888): dose-dependent decreased
- level of γH2A.X, cleaved PARP1, and cleaved caspase-3 (PARP1; combination treatment anti-MALAT1 and ABT888): significantly increased
Compound: C[C@]1(c2nc3c(C(N)=O)cccc3[nH]2)CCCN1 [ABT888]

- IC50 (RPMI8226/DOX40 cells; control oligos, 72 hours): 2.46 µM
- IC50 (RPMI8226/DOX40 cells; [2]): 1.48 µM
Compound: COc1cccc2c1C(=O)c1c(O)c3c(c(O)c1C2=O)C[C@@](O)(C(=O)CO)C[C@@H]3O[C@H]1C[C@H](N)[C@H](O)[C@H](C)O1 [doxorubicin]

- IC50 (H929 cells; NCI-H929, H929 cells transfected with 1 nM anti-MALAT1): 0.0036 µM
- IC50 (H929 cells; NCI-H929, H929 cells, control (before MALAT1 knockdown)): 0.0049 µM
- IC50 (MM.1S cells; MM.1S cells transfected with 1 nM anti-MALAT1): 0.0066 µM
- IC50 (MM.1S cells; MM.1S cells, control (before MALAT1 knockdown)): 0.0089 µM
- IC50 (RPMI8226 cells; control): 0.0101 µM
- IC50 (RPMI8226 cells; transfected with 1 nM anti-MALAT1): 0.0082 µM
- IC50 (RPMI8226/V10R cells; control oligos, 72 hours): 0.194 µM
- IC50 (RPMI8226/V10R cells; [2]): 0.144 µM
Compound: CC(C)C[C@H](NC(=O)[C@H](Cc1ccccc1)NC(=O)c1cnccn1)B(O)O [bortezomib]
- γH2A.X signals and apoptosis ratio [1]: increased
- expression of BRCA1 and BRCA2 (BRCA1 and BRCA2): dramatically down-regulated
